In patent publication US20230391786A1, “cGAS INHIBITORS” (Eli Lilly and Company, priority 2022, published 2023):
Where a name gives a salt, the structure may show the parent alone. Read-outs that look alike come from different tables or passages of the source.

Legend:
recombinant human cGAS = recombinant human cGAS (Homo sapiens (Human), UniProt Q8N884); assay: In vitro inhibition assay of cGAS activity (cGAMP production, RapidFire mass spectrometry); format: biochemical; settings: 10 nM recombinant human cGAS, 60 nM 75-bp dsDNA, ATP, GTP, room temperature 3 hours, read-out: IC50 (μM), In vitro inhibition assay for Compounds 95-348
Method in brief: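 Product cGAMP was quantified by RapidFire MS against a difluoro-cGAMP internal standard after a formic acid quench. The reaction contained 10 nM recombinant full-length human cGAS, 75-bp dsDNA (60 nM), ATP and GTP (50 μM) and ran for 3 h at room temperature. IC50 values came from 4-parameter nonlinear regression.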

[1] = test system: cGAS activity in THP1 cells (IFNb as marker); assay: Cellular assay to measure cGAS activity (IFNb production in PMA-differentiated THP1 cells stimulated by RDG-Adenovirus-GFP); format: cell-based, human; settings: Homo sapiens
Method in brief: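 The readout is secreted IFNb measured by AlphaLISA after overnight compound exposure. THP1 cells, differentiated with PMA for 24 h and rested overnight, were infected with RDG-Adenovirus-GFP (1000 MOI, 4 h) before compounds were added; IC50 came from a 4-parameter logistic fit of inhibition against log concentration.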

[2] = THP-1, THP1 cells, PMA differentiated, RDG-Adenovirus-GFP 1000 MOI, IFNb AlphaLISA, overnight incubation, read-out: IC50 (μM), Cellular assay for Compounds 95-348

recombinant human cGAS, sequence (Q8N884 whole entry): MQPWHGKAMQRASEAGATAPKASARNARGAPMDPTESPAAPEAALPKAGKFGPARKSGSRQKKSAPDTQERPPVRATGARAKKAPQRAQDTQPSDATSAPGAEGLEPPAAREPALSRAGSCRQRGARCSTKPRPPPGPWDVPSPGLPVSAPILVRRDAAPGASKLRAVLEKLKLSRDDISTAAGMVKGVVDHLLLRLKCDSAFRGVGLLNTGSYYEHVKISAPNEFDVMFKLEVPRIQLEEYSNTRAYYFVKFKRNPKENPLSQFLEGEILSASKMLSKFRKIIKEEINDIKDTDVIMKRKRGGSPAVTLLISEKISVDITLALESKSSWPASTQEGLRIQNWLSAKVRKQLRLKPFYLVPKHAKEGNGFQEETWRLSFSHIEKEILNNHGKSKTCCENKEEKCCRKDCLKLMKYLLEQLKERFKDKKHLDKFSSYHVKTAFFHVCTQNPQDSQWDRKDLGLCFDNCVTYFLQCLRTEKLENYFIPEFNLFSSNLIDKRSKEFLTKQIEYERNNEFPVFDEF

SMILES	IC50 (recombinant human cGAS)	IC50 [1, 2]	IC50 ([1]; THP-1, read-out: IC50 (μM), Cellular assay for Compounds 95-348)
NC(=O)NCc1[nH]c2c(Cl)c(Cl)ccc2c1-c1cn[nH]c1 [Example 164, [6,7-Dichloro-3-(1H-pyrazol-4-yl)-1H-indol-2-yl]methylurea]	0.0543 µM	1.34 µM	
O=C(NCc1[nH]c2c(Cl)c(Cl)ccc2c1-c1cn[nH]c1)c1nnco1 [Example 165, N-[[6,7-Dichloro-3-(1H-pyrazol-4-yl)-1H-indol-2-yl]methyl]-1,3,4-oxadiazole-2-carboxamide]	0.0894 µM	1.32 µM	
Cn1cc(-n2c(CO)c(-c3cn[nH]c3)c3ccc(Cl)c(Cl)c32)nn1 [Example 166, [6,7-Dichloro-1-(1-methyltriazol-4-yl)-3-(1H-pyrazol-4-yl)indol-2-yl]methanol]	0.0931 µM	2.83 µM	
C[C@@H](O)C(=O)NCc1[nH]c2c(Cl)c(Cl)ccc2c1-c1cn[nH]c1 [Example 167, (R)—N-((6,7-Dichloro-3-(1H-pyrazol-4-yl)-1H-indol-2-yl)methyl)-2-hydroxypropanamide]	0.0672 µM	1.86 µM	
C[C@H](O)C(=O)NCc1[nH]c2c(Cl)c(Cl)ccc2c1-c1cn[nH]c1 [Example 168, (S)—N-((6,7-Dichloro-3-(1H-pyrazol-4-yl)-1H-indol-2-yl)methyl)-2-hydroxypropanamide]	0.0463 µM	1 µM	
O=C(Nc1cc(Cl)c(Cl)c2[nH]cc(-c3cn[nH]c3)c12)C(F)(F)CO [Example 169, N-(6,7-Dichloro-3-(1H-pyrazol-4-yl)-1H-indol-4-yl)-2,2-difluoro-3-hydroxypropanamide]	0.0138 µM	0.656 µM	
O=C(CF)Nc1cc(Cl)c(Cl)c2[nH]cc(-c3cn[nH]c3)c12 [Example 170, N-(6,7-Dichloro-3-(1H-pyrazol-4-yl)-1H-indol-4-yl)-2-fluoroacetamide]	0.00567 µM		0.129 µM
O=C(Nc1cc(Cl)c(Cl)c2[nH]cc(-c3cn[nH]c3)c12)C(F)F [Example 171, N-[6,7-Dichloro-3-(1H-pyrazol-4-yl)-1H-indol-4-yl]-2,2-difluoro-acetamide]	0.00356 µM	0.0689 µM	
O=C(Nc1cc(Cl)c(F)c2c1c(-c1cn[nH]c1)cn2-c1cn(CCO)nn1)C(F)F [Example 172, N-[6-Chloro-7-fluoro-1-[1-(2-hydroxyethyl)triazol-4-yl]-3-(1H-pyrazol-4-yl)indol-4-yl]-2,2-difluoro-acetamide]	0.0341 µM	0.651 µM	
OCCCNc1cc(Cl)c(F)c2c1c(-c1cn[nH]c1)cn2-c1cn(CCO)nn1 [Example 173, 3-[[6-Chloro-7-fluoro-1-[1-(2-hydroxyethyl)triazol-4-yl]-3-(1H-pyrazol-4-yl)indol-4-yl]amino]propan-1-ol]	0.0145 µM	0.466 µM	
Clc1cc(NC2COC2)c2c(-c3cn[nH]c3)c[nH]c2c1Cl [Example 177, 6,7-Dichloro-N-(oxetan-3-yl)-3-(1H-pyrazol-4-yl)-1H-indol-4-amine]	0.0245 µM	1.13 µM	
O=C(Cc1[nH]c2c(Cl)c(Cl)ccc2c1-c1cn[nH]c1)NCc1cc[nH]n1 [Example 178, 2-[6,7-Dichloro-3-(1H-pyrazol-4-yl)-1H-indol-2-yl]-N-(1H-pyrazol-3-ylmethyl) acetamide]	0.0413 µM	3.62 µM	
O=C1NCC(C(=O)N2CCn3c(c(-c4cn[nH]c4)c4ccc(Cl)c(Cl)c43)C2)O1 (stereo not drawn) [Example 180, 5-[6,7-Dichloro-10-(1H-pyrazol-4-yl)-3,4-dihydro-1H-pyrazino[1,2-a]indole-2-carbonyl]oxazolidin-2-one]	0.018 µM	1.85 µM	
CN(C)C(=O)NCC(=O)N1CCn2c(c(-c3cn[nH]c3)c3ccc(Cl)c(Cl)c32)C1 [Example 182, 3-[2-[6,7-Dichloro-10-(1H-pyrazol-4-yl)-3,4-dihydro-1H-pyrazino[1,2-a]indol-2-yl]-2-oxo-ethyl]-1,1-dimethyl-urea]	0.0416 µM	> 10 µM	
FCCOc1cc(Cl)c(Cl)c2[nH]cc(-c3cn[nH]c3)c12 [Example 183, 6,7-Dichloro-4-(2-fluoroethoxy)-3-(1H-pyrazol-4-yl)-1H-indole]	0.0118 µM	0.875 µM	
FC(F)COc1cc(Cl)c(Cl)c2[nH]cc(-c3cn[nH]c3)c12 [Example 184, 6,7-Dichloro-4-(2,2-difluoroethoxy)-3-(1H-pyrazol-4-yl)-1H-indole]	0.0385 µM	1.13 µM	
O=C(Nc1cc(Cl)c(Cl)c2[nH]cc(-c3cn[nH]c3)c12)C(O)CO (stereo not drawn) [Example 185, N-[6,7-Dichloro-3-(1H-pyrazol-4-yl)-1H-indol-4-yl]-2,3-dihydroxy-propanamide]	0.077 µM	3.44 µM	

SMILES	IC50 (recombinant human cGAS)	IC50 [1, 2]	IC50 ([1]; THP-1, read-out: IC50 (μM), Cellular assay for Compounds 95-348)
OCC(F)(F)CNc1cc(Cl)c(Cl)c2[nH]cc(-c3cn[nH]c3)c12 [Example 186, 3-[[6,7-Dichloro-3-(1H-pyrazol-4-yl)-1H-indol-4-yl]amino]-2,2-difluoro-propan-1-ol]	0.0127 µM	0.909 µM	
OCC(F)CNc1cc(Cl)c(Cl)c2[nH]cc(-c3cn[nH]c3)c12 (stereo not drawn) [Example 187, 3-[[6,7-Dichloro-3-(1H-pyrazol-4-yl)-1H-indol-4-yl]amino]-2-fluoro-propan-1-ol]	0.0104 µM	0.326 µM	
FC(F)CCNc1cc(Cl)c(Cl)c2[nH]cc(-c3cn[nH]c3)c12 [Example 188, 6,7-Dichloro-N-(3,3-difluoropropyl)-3-(1H-pyrazol-4-yl)-1H-indol-4-amine]	0.0541 µM	2.45 µM	
CC(C)(O)C(=O)NC1CCc2c(-c3cn[nH]c3)c3ccc(Cl)c(Cl)c3n2C1 (stereo not drawn) [Example 189, N-[3,4-Dichloro-10-(1H-pyrazol-4-yl)-6,7,8,9-tetrahydropyrido[1,2-a]indol-7-yl]-2-hydroxy-2-methyl-propanamide]	0.0272 µM	1.89 µM	
O=C(NC1CCc2c(-c3cn[nH]c3)c3ccc(Cl)c(Cl)c3n2C1)C1(O)CCOCC1 (stereo not drawn) [Example 190, N-[3,4-Dichloro-10-(1H-pyrazol-4-yl)-6,7,8,9-tetrahydropyrido[1,2-a]indol-7-yl]-4-hydroxy-tetrahydropyran-4-carboxamide]	0.0361 µM	2.19 µM	
Clc1ccc2c(-c3cn[nH]c3)c3n(c2c1Cl)CC(Nc1ncccn1)CC3 (stereo not drawn) [Example 191, 3,4-Dichloro-10-(1H-pyrazol-4-yl)-N-pyrimidin-2-yl-6,7,8,9-tetrahydropyrido[1,2-a]indol-7-amine]	0.0763 µM	8.53 µM	
OCC(CO)CNc1cc(Cl)c(Cl)c2[nH]cc(-c3cn[nH]c3)c12 [Example 192, 2-[[[6,7-Dichloro-3-(1H-pyrazol-4-yl)-1H-indol-4-yl]amino]methyl]propane-1,3-diol]	0.0379 µM	1.29 µM	
OCCCOc1cc(Cl)c(Cl)c2[nH]cc(-c3cn[nH]c3)c12 [Example 193, 3-[[6,7-Dichloro-3-(1H-pyrazol-4-yl)-1H-indol-4-yl]oxy]propan-1-ol]	0.00322 µM	0.143 µM	
OCC(CO)COc1cc(Cl)c(Cl)c2[nH]cc(-c3cn[nH]c3)c12 [Example 194, 2-[[6,7-Dichloro-3-(1H-pyrazol-4-yl)-1H-indol-4-yl]oxymethyl]propane-1,3-diol]	0.0184 µM	1.29 µM	
CC(=O)NCCn1cc(-c2cn[nH]c2)c2c(NCCCO)cc(Cl)c(Cl)c21 [Example 195, N-[2-[6,7-Dichloro-4-(3-hydroxypropylamino)-3-(1H-pyrazol-4-yl)indol-1-yl]ethyl]acetamide]	0.0298 µM	1.23 µM	
NCCCCCC(=O)NCC(=O)NC1CCc2c(-c3cn[nH]c3)c3ccc(Cl)c(Cl)c3n2C1 (stereo not drawn) [Example 196, 6-Amino-N-[2-[[3,4-dichloro-10-(1H-pyrazol-4-yl)-6,7,8,9-tetrahydropyrido[1,2-a]indol-7-yl]amino]-2-oxo-ethyl]hexanamide formic acid salt]	0.064 µM	> 10 µM	
N#CCOc1cc(Cl)c(Cl)c2c1c(-c1cn[nH]c1)cn2-c1cn(CCO)nn1 [Example 197, 22-[6,7-Dichloro-1-[1-(2-hydroxyethyl)triazol-4-yl]-3-(1H-pyrazol-4-yl)indol-4-yl]oxyacetonitrile]	0.00893 µM	1.06 µM	
OCCCNc1cc(Cl)c(Cl)c2c1c(-c1cn[nH]c1)cn2-c1cn(CCO)nn1 [Example 198, 3-[[6,7-Dichloro-1-[1-(2-hydroxyethyl)triazol-4-yl]-3-(1H-pyrazol-4-yl)indol-4-yl]amino]propan-1-ol]	0.011 µM	0.395 µM	
CC(=O)Nc1cc(Cl)c(Cl)c2c1c(-c1cn[nH]c1)cn2-c1cn(CCO)nn1 [Example 199, N-[6,7-Dichloro-1-[1-(2-hydroxyethyl)triazol-4-yl]-3-(1H-pyrazol-4-yl)indol-4-yl]acetamide]	0.0519 µM	2.66 µM	
OCCCNc1cc(Cl)cc2c1c(-c1cn[nH]c1)cn2-c1cn(CCO)nn1 [Example 200, 3-[[6-Chloro-1-[1-(2-hydroxyethyl)triazol-4-yl]-3-(1H-pyrazol-4-yl)indol-4-yl]amino]propan-1-ol]	0.0282 µM	0.292 µM	
CC(=O)Nc1cc(Cl)cc2c1c(-c1cn[nH]c1)cn2-c1cn(CCO)nn1 [Example 201, N-[6-Chloro-1-[1-(2-hydroxyethyl)triazol-4-yl]-3-(1H-pyrazol-4-yl)indol-4-yl]acetamide]	0.0777 µM	4.23 µM	
